Data on 29 compounds can be found in patent publication US9783505B2, “Substituted diaminopyrimidyl compounds, compositions thereof, and methods of treatment therewith” (Signal Pharmaceuticals, LLC, priority 2013, dated 2017).

The target in the first assay is T1, His-PKC-theta (Homo sapiens, UniProt Q04759).
T1 construct: His; purchased Invitrogen
T1 sequence (Q04759 whole entry): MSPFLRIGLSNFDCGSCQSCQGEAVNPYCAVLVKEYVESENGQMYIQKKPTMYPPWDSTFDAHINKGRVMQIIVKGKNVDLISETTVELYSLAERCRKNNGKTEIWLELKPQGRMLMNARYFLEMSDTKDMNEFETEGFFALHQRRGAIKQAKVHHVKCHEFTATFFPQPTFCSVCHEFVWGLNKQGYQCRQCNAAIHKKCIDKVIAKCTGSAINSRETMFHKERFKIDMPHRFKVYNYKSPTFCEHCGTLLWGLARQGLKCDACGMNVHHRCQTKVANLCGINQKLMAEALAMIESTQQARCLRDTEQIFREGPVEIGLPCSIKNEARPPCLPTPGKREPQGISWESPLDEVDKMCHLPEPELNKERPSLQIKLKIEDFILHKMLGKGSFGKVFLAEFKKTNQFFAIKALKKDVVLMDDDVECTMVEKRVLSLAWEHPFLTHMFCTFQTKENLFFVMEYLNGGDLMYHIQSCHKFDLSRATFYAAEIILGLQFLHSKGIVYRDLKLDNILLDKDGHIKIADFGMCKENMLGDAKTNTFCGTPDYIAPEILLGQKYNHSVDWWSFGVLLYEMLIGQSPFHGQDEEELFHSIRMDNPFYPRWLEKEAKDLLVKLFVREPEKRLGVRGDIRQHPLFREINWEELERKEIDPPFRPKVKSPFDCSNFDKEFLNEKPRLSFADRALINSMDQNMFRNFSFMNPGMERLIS
Kind of assay: PKC-theta Assay (384-well time resolved fluorescence, IMAP TR-FRET). Format: biochemical. To be noted: Table 2; read-out: Act. Level (IC50 in the PKC-theta Assay). Put shortly:
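Enzyme at 142 pM phosphorylated 200 nM Fam-S6 peptide with 10 μM ATP in 50 mM HEPES pH 7.6, 10 mM MgCl2, 1 mM DTT for 2 h at room temperature. Product was detected after overnight incubation with IMAP binding reagent and Tb donor by time-resolved FRET.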
Background: In TR-FRET formats the signal depends on donor and acceptor labels being close together.
Usually IC50 stands for the midpoint of a concentration-inhibition curve. `CC1(C)[C@@H](CO)C[C@H]1Nc1nc(NCCc2cccc(Cl)c2)ncc1C#N` [Cmpd 74]: the IC50 was less than 100 nM. On to `N#Cc1cnc(NCc2ccccc2-c2ccccc2)nc1N[C@H]1CC[C@@H](O)CC1` [Cmpd 10], for which the IC50 was 100 to 800 nM. As to `N#Cc1cnc(NCc2ccccc2Cl)nc1N[C@H]1CC[C@@H](O)CC1` [Cmpd 9], the IC50 was in the range of 100 to 800 nM. Turning to `COc1ccc(CCNc2ncc(C#N)c(N[C@@H]3CC[C@H](O)C(C)(C)C3)n2)cc1OC` [Cmpd 36], the half-maximal inhibitory concentration (IC50) lay within 100 to 800 nM. In the case of `CC1(C)C[C@H](Nc2nc(NCCc3ccc(F)c(Cl)c3)ncc2C#N)CC[C@@H]1O` [Cmpd 88], the IC50 was less than 100 nM. For `CC1(C)[C@@H](O)C[C@H]1Nc1nc(NCCc2cccc(Cl)c2)ncc1C#N` [Cmpd 86], the IC50 is less than 100 nM. As to `CC1(C)C[C@H](Nc2nc(NCCc3ccc(S(=O)(=O)N4CCCCC4)cc3)ncc2C#N)CC[C@@H]1O` [Cmpd 178], the IC50 fell in the range of 100 to 800 nM. For the compound `CC1(C)C[C@H](Nc2nc(NCCc3ccc(C#N)cc3)ncc2C(F)(F)F)CC[C@@H]1O` [Cmpd 161], the IC50 was in the range of 100 to 800 nM. For the compound `CC1(C)C[C@H](Nc2nc(NCC(=O)c3ccc(F)cc3F)ncc2C#N)CC[C@@H]1O` [Cmpd 66], the IC50 lay in the range of 100 to 800 nM. As for `CC1(C)[C@@H](O)C[C@H]1Nc1nc(NCCc2ccc(-c3ccc(F)cc3)cc2)ncc1C#N` [Cmpd 120], the IC50 fell in the range of 100 to 800 nM. Still for that read-out and setting: the figure for `CC1(C)[C@@H](O)C[C@H]1Nc1nc(NCCc2ccc(S(N)(=O)=O)cc2)ncc1C#N` [Cmpd 113] is 100 to 800 nM; for `CC1(C)C[C@H](Nc2nc(NCCc3cc(Cl)ccc3F)ncc2C#N)CC[C@@H]1O` [Cmpd 89] it is less than 100 nM. Consider `CC1(C)C[C@H](Nc2nc(NCCc3ccc(S(=O)(=O)N4CCCC4)cc3)ncc2C#N)CC[C@@H]1O` [Cmpd 174], for which the half-maximal inhibitory concentration (IC50) lay in the range of 100 to 800 nM.

For the compound `Cc1nnnn1-c1ccccc1CNc1ncc(C(F)(F)F)c(N[C@H]2CC[C@@H](O)C(C)(C)C2)n1` [Cmpd 24], the IC50 was 2000 to 10000 nM. Turning to `C[C@@H](CNc1ncc(C#N)c(N[C@@H]2C[C@H](O)C2(C)C)n1)c1ccccc1` [Cmpd 41], the IC50 is 800 to 2000 nM. On to `N#Cc1cnc(NCc2ccccc2OC(F)(F)F)nc1N[C@H]1CC[C@@H](O)CC1` [Cmpd 17], for which the IC50 lay within 800 to 2000 nM.

The assay is the same for the next values; noted with them: read-out: Act. Level (IC50 in the PKC-theta Assay).
On to `C[C@]1(O)CC[C@@H](Nc2nc(NCc3cnccc3C(F)(F)F)ncc2C(F)(F)F)CC1` [Cmpd 46], for which the IC50 was less than 100 nM.

For the compound `CC(C)c1ncncc1CNc1ncc(C#N)c(N[C@H]2CC[C@@](C)(O)CC2)n1` [Cmpd 56], the IC50 is less than 100 nM. For `CC1(C)C[C@H](Nc2nc(NCCc3cccs3)ncc2C#N)CC[C@@H]1O` [Cmpd 185], the IC50 lay in the range of 100 to 800 nM. Still for that read-out and setting: the result for `Cc1cc(C(F)(F)F)c(CNc2ncc(C#N)c(N[C@H]3CC[C@@](C)(O)CC3)n2)c[n+]1[O-]` [Cmpd 146] reads 800 to 2000 nM. Still for that read-out and setting: the result for `Cc1ccc(Oc2ncncc2CNc2ncc(C#N)c(N[C@H]3CC[C@@](C)(O)CC3)n2)cc1` [Cmpd 28] reads less than 100 nM; that for `CC1(C)C(O)C[C@@H]1Nc1nc(NCc2cncnc2OCCC(F)(F)F)ncc1C(F)(F)F` (some centres unmarked) [Cmpd 85], less than 100 nM; that for `COc1ncncc1CNc1ncc(C(F)(F)F)c(N[C@@H]2C[C@H](O)C2(C)C)n1` [Cmpd 62], less than 100 nM. Turning to `O[C@H]1C[C@H](Nc2nc(NCc3cnccc3C(F)(F)F)ncc2C(F)(F)F)C1` [Cmpd 94], the IC50 fell in the range of 100 to 800 nM. In the case of `CC(C)(F)c1ncncc1CNc1ncc(C#N)c(N[C@H]2C[C@@H](CO)C2(C)C)n1` [Cmpd 109], the IC50 is 100 to 800 nM.

For the compound `CCc1ncncc1CNc1ncc(C#N)c(NC2CC(C)(O)C2(C)C)n1` (centres unmarked) [Cmpd 135], the IC50 was in the range of 100 to 800 nM. With `CC1(C)[C@@H](CO)C[C@H]1Nc1nc(NCc2cnccc2C(F)(F)F)ncc1C(F)(F)F` [Cmpd 32], the IC50 is less than 100 nM. As to `CC(F)(F)COc1ncncc1CNc1ncc(C#N)c(N[C@@H]2C[C@H](O)C2(C)C)n1` [Cmpd 16], the IC50 was less than 100 nM. As for `CC1(C)[C@H](O)C[C@H]1Nc1nc(NCc2c[n+]([O-])ccc2C(F)(F)F)ncc1C(F)(F)F` [Cmpd 105], the half-inhibitory concentration (IC50) lay in the range of 100 to 800 nM.
